# Test results as given in patent publication US6794544B2, “Method for the preparation of tetrahydrobenzothiepines” (Pharmacia Corporation, priority 2000, dated 2004).
# Experiment: Water uptake experiments (Dynamic Vapor Sorption, water sorption/desorption isotherms)
# Format: physicochemical
# Experimental: A dry sample of the crystalline form having a melting point or a decomposition point of about 278° C. to about 285° C. (i.e., Form 11) typically gains less than about 1% of its own weight when equilibrated under 80% relative humidity (RH) air at 25° C. […] For the present purposes, the term “essentially 0% RH” means less than about 1% RH. The term “equilibrated” means that the change in weight of a sample over time at a given relative humidity is less than 0.0003% ((dm/dt)/m0×100, where m is mass in mg, m0 is initial mass, and t is time in minutes).
# Water sorption experiments are performed on a Dynamic Vapor Sorption (DVS) apparatus (DVS-1000 manufactured by Surface Measurements Systems, Inc.). Experiments are performed at 25° C. by initially drying the material of interest (about 10 mg sample) from 30% relative humidity (RH) (ambient room condition) to about 9% RH in a stepwise fashion (10% RH step) by purging with dry nitrogen until no further weight change was observed. The samples are then exposed to a stepwise (10% RH steps) increase in RH from about 0 to about 90% RH. Each successive step is initiated when the change in weight over time at the relative humidity was less than 0.0003% ((dm/dt)/m0×100, where m is mass in mg, m0 is initial mass, and t is time in minutes). […] The data are collected on a computer and analyzed using SMS′ proprietary MS-Excel macro interface software.
smiles,measurement,setting,value
"CCCCC1(CCCC)CS(=O)(=O)c2ccc(N(C)C)cc2[C@@H](c2ccc(OCc3ccc(C[N+]45CCN(CC4)CC5)cc3)cc2)[C@H]1O [Form II, (4R,5R)-1-((4-(4-(3,3-dibutyl-7-(dimethylamino)-2,3,4,5-tetrahydro-4-hydroxy-1,1-dioxido-1-benzithiepin-5-yl)phenoxy)methyl)phenyl)methyl-4-aza-1-azoniabicyclo[2.2.2]octane chloride]",weight gain of the sample (of its own weight),"dried at essentially 0% RH at about 25° C. under dry nitrogen, then equilibrated under about 80% RH air at about 25° C.",less than 1%
same,hygroscopicity,dry sample equilibrated under 80% RH air at 25° C.,essentially nonhygroscopic
